“And” between values parts separate entries of the source, which are not always exact repeats. Identical values can stand only once. Like-named read-outs stand apart in the source and are kept apart here. Non-standard residues stand in square brackets, D forms with d. Residues, ends and D or L forms follow the SMILES beside them. Nspe(4-Br) = C[C@H](NCC(=O)O)c1ccc(Br)cc1; Nspe = C[C@H](NCC(=O)O)c1ccccc1; NDecylGly = CCCCCCCCCCNCC(=O)O; Nlys = NCCCCNCC(=O)O
Assays:
[1] = system: human corneal epithelial cells; assay: Cytotoxicity (MTT) to corneal epithelial cells; type: cell-based
Procedure: Cytotoxicity to corneal epithelial cells was assessed for peptoids TM1, TM5 and TM9 using previously published methods and FDA guidelines. These peptides represent structurally diverse types (Table 2) and had different abilities to cause hemolysis of red blood cells (Fig. 1 and Table 3). Corneal cells were seeded on 96 well plate (GreinerBio One, Frickenhauser, Germany) incubated in 5 % CO2 at 37°C and grown to 80 % confluence in Dulbecco’s modified Eagle’s medium (DMEM) (Sigma-Aldrich, Irvine, UK). They were then exposed to twofold dilutions of each peptoid at concentrations ranging from 500 to 1.95 μg mL^−1 for 24 h at 37°C. An MTT (3-(4,5-dimethylthiazol-2yl)-2,5-diphenyltetrazolium bromide; Sigma-Aldrich) working solution of 0.5 mg mL^−1 was dissolved in DMEM, 100–200 μL was dispensed into each well and incubated for 4 h at 37°C. Following incubation, MTT was replaced by dimethyl sulfoxide (DMSO, Sigma Aldrich) to dissolve the formazan crystals formed by viable cells. Absorbance of this solution was measured at OD570nm. The absorbance is directly proportional to the number of viable cells. The normalized absorbance was calculated to determine number of viable cells using the following formula: %Cytotoxicity=(Absorbance of experiment well)−mean(absorbance of control well)/mean(Absorbance of positive control well)⋆100
Data are also presented as the concentration of peptoids that caused 10 % or 50 % cytotoxicity to human corneal epithelial cells.
(§1) The geometric mean is the nth root of the multiplied numbers, where n is the total number of data values. A similar formula was used to calculate the selectivity ratio, but by using the concentration of peptoid that caused 10 % hemolysis.

S. aureus strains = type: cell-based, Staphylococcus aureus; details: summary over five S. aureus strains in text
Description: (§3) The S. pneumoniae strains used were SP04, SP06 and SP07 [46] and Streptococcus gallolyticus SV06 (all isolated from eyes of contact lens wearers during adverse events); P. aeruginosa PAO1 (which was originally isolated from a wound, and is an invasive strain containing the gene exoS) as well as isolates from microbial keratitis, PA 235 (invasive strain containing exoS), PA216 (a cytotoxic strain containing exoU), PA219 (cytotoxic strain containing exoU), PA 233 (cytotoxic strain containing exoU), with various susceptibilities to antibiotics were also used [14]. C. albicans ATCC 10231, a yeast, isolated from case of a human bronchomycosis, was also evaluated.
(§4) The peptoids’ minimum inhibitory and bactericidal concentrations (MIC and MBC) were determined using micro broth dilution methods as previously described with slight modifications, [26, 39, 49, 50], and without using acetic acid and bovine serum albumin [39]. Briefly, bacteria or yeast were suspended in Muller Hinton broth (MHB, Oxoid, Thermo Fisher Scientific, Thebarton, SA, Australia) at 0.1 OD660nm, which was equivalent to 1x10^8 colony forming units (CFU) mL^−1. This suspension was further diluted to achieve 5x10^6 CFU mL^−1. […] Post incubation, the number of CFUs on the agar plates was counted.

streptococci = assay: MIC micro broth dilution, summary over streptococci; type: cell-based
Description: as §3, §4

tested bacteria = assay: Geometric mean of MIC of the tested bacteria; type: cell-based; details: nth root of the multiplied MICs of the tested bacteria
Description: as §1

P aeruginosa 216 = system: P aeruginosa 216
Procedure: (§2) Melimine was used as positive control as it is a cationic antimicrobial peptide that can be hydrolysed by proteases. The Expasy peptide cutter module (https://web.expasy.org/peptide_cutter/) was accessed to predict which proteases might digest melimine. The susceptibility of the antimicrobial compounds to digestion by two proteases expected to digest melimine, Proteinase K (120 unit mL^−1 in 20 mM Tris HCl, pH 7.4; New England Bio Labs, Australia) and Trypsin (10,350 BAFE units/mg in 50 mM borate buffer, pH 8.5; Thermo Scientific products, Australia), was tested. The peptoids and melimine were incubated with each protease at the ratio (w/w) of 1:100 in PBS (pH 7.4) for 24 h at 37 °C. After incubation, the peptoid/melimine + protease solutions were tested for their activity against P. aeruginosa 216 which was grown overnight in TSB at 37 °C. Bacterial cells were washed three times in PBS and then resuspended in MHB OD660nm of 0.1 (equal to 1x10^8 CFU mL^−1. The bacterial suspension was then diluted in MHB to a final working concentration of 5x10^6 cells mL^−1. The diluted bacterial suspension was subsequently added to the wells containing the peptoids/melimine + protease solution and incubated for 24 h at 37 °C. Peptoids/melimine solutions alone (no proteases) were used as a positive control, while protease solutions without the peptoids/melimine were used as a negative control. Post incubation, to inhibit the activity of the proteases, the bacterial suspensions were heated at 55 °C for 10 min in a water bath. After the heating step, the absorbance of the suspensions was measured at OD660nm.

Proteinase K = Proteinase K (Parengyodontium album, UniProt P06873)
Proteinase K, sequence (P06873 106-384): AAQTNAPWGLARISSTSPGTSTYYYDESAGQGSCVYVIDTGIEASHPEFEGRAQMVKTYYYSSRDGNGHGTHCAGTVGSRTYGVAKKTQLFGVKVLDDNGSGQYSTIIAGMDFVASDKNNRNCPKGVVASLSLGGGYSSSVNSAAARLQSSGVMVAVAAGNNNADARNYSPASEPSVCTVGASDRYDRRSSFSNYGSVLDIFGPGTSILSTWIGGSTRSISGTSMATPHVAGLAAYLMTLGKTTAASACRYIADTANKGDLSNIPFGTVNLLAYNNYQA
Procedure: as §2

Trypsin = biological target: T1, Trypsin (Bos taurus, UniProt P00760)
T1 sequence (P00760 24-246): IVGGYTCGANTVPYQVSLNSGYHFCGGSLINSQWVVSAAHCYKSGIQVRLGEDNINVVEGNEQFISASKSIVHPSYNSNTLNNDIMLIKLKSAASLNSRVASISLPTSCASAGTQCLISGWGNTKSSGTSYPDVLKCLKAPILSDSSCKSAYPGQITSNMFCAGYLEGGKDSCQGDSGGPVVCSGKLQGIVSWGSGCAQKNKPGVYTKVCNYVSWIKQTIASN
Procedure: as §2

[2] = incubated with protease at ratio (w/w) 1:100 in PBS pH 7.4, 24 h 37 °C, then P aeruginosa 216 in MHB 24 h 37 °C, OD660nm

Description for all strains: as §3, §4

| SMILES | HCE CC10 ([1]; concentration causing 10 % cytotoxicity to human corneal epithelial cells, MTT, 24 h 37°C) [µM] | HCE CC50 ([1]; concentration causing 50 % cytotoxicity to human corneal epithelial cells, MTT, 24 h 37°C) [µM] | cytotoxicity to human corneal epithelial cells relative to MIC ([1]; result in words) | SR HCE (ratio CC10 to geometric mean MIC) ([1]; selectivity ratio) | TI HCE (ratio CC50 to geometric mean MIC) ([1]; therapeutic index) | MIC among S. aureus (S. aureus strains) [µM] | MIC against other streptococci (streptococci) [µM] | Geometric mean of MIC (tested bacteria) | MIC, No protease (P aeruginosa 216; 216, 24 h) | MIC after Proteinase K (Proteinase K; pH 7.4) | MIC after Trypsin (Trypsin; pH 7.4) | MICs against all strains (all strains) [µM] | MIC, No protease (P aeruginosa 216; P aeruginosa 216 in MHB, 24 h 37 °C, OD660nm, compound alone) | MIC after Proteinase K (Proteinase K; [2]) | MIC after Trypsin (Trypsin; [2]) |
| --- | --- | --- | --- | --- | --- | --- | --- | --- | --- | --- | --- | --- | --- | --- | --- |
| C[C@@H](c1ccccc1)N(CC(N)=O)C(=O)CN(C(=O)CN(CCCCN)C(=O)CN(C(=O)CN(C(=O)CN(CCCCN)C(=O)CN(C(=O)CN(C(=O)CN(CCCCN)C(=O)CN(C(=O)CN(C(=O)CNCCCCN)[C@@H](C)c1ccccc1)[C@@H](C)c1ccccc1)[C@@H](C)c1ccccc1)[C@@H](C)c1ccccc1)[C@@H](C)c1ccccc1)[C@@H](C)c1ccccc1)[C@@H](C)c1ccccc1 [TM1] (H-[Nlys][Nspe][Nspe][Nlys][Nspe][Nspe][Nlys][Nspe][Nspe][Nlys][Nspe][Nspe]-NH2) | 1 | 10 | cytotoxic to human corneal epithelial cells at or below their MICs | 0.3 | 3 | ≤ 9.4 | ≤ 8.6 | – | – | – | – | – | – | – | – |
| C[C@@H](c1ccc(Br)cc1)N(CC(=O)N(CCCCN)CC(=O)N(CC(=O)N(CC(=O)N(CCCCN)CC(N)=O)[C@@H](C)c1ccc(Br)cc1)[C@@H](C)c1ccc(Br)cc1)C(=O)CN(C(=O)CNCCCCN)[C@@H](C)c1ccc(Br)cc1 [TM14] (H-[Nlys][Nspe(4-Br)][Nspe(4-Br)][Nlys][Nspe(4-Br)][Nspe(4-Br)][Nlys]-NH2) | – | – | – | – | – | – | – | 4.0 µM and 4 µM | 7.8 (5.8) μg mL^−1 | 7.8 (5.8) μg mL^−1 | 7.8 (5.8) μg mL^−1 | ≤ 12.7 | – | – | – |
| CCCCCCCCCCNCC(=O)N(CCCCN)CC(=O)N(CC(=O)N(CC(=O)N(CCCCN)CC(=O)N(CC(=O)N(CC(=O)N(CCCCN)CC(N)=O)[C@@H](C)c1ccccc1)[C@@H](C)c1ccccc1)[C@@H](C)c1ccccc1)[C@@H](C)c1ccccc1 [TM18] (H-[NDecylGly][Nlys][Nspe][Nspe][Nlys][Nspe][Nspe][Nlys]-NH2) | – | – | – | – | – | – | – | 5 µM | – | – | – | – | 15 (12) μg mL^−1 | 15 (12) μg mL^−1 | 15 (12) μg mL^−1 |

From article PMC11024869, “The activity of antimicrobial peptoids against multidrug-resistant ocular pathogens” (Contact lens & anterior eye : the journal of the British …, 2024)
